According to US8981150B2 (priority 2009, dated 2015):

Assay: Solubility in water

With `CCCCC(OC)C(=O)N(C)C` (stereo not shown) [Product 4] as the compound, how does the “Solubility in water (% w/w)” value read?
The value was <0.05 % w/w.

With `CCCCC(OCC)C(=O)N(C)C` (stereo not shown) [Product 5] as the compound, how does the “Solubility in water (% w/w)” value read?
The value was <0.05 % w/w.

For `CCCC(OC)C(=O)N(C)C` (stereo not shown) [Product 6], which “Solubility in water (% w/w)” value is on record?
Its value is <0.1 % w/w.

For `CCCC(OCC)C(=O)N(C)C` (stereo not shown) [Product 7], which “Solubility in water (% w/w)” value is on record?
The value was <0.1 % w/w.
